Reference: patent US20070232694A1, “SKIN CLEANSER” (priority 2006, published 2007)

Experiments:
mycobacteria marinum = assay: Finger infection, patient case; type: in vivo, human; details: after eleven days of antibiotics
Experimental: Action against Mycobacteria: A person with four month long history of an infection on the posterior aspect of their right ring finger was treated. The infected areas were culture positive for mycobacteria marinum, with symptoms of infection resulting in a 4 cm long patchy zone of erythema, induration, and oozing from the wound. After failing two full courses of oral antibiotics, over the previous four months, the patient was given a third round of antibiotics, this time Clarythromycin, after their finger's condition had worsened.

[1] = tested on: ATCC 29213 (MSSA) and ATCC 43330 (MRSA); assay: Petri dish (Mueller-Hinton agar) drop test, zones of inhibition vs controls; type: cell-based, Staphylococcus aureus; details: for order of anti-bacterial effectiveness: at a given concentration
Experimental: Testing was conducted at a pathology laboratory certified for microbiology testing by a physician and a microbiologist. A double blind, randomized controlled experiment was conducted to evaluate the surfactant compounds against bacteria in Petri dishes.
Bacterial strain: Two well characterized strains of methicillin-sensitive Staphylococcus aureus (MSSA) and methicillin-resistant Staphylococcus aureus (MRSA) were used. Specifically, experiments used ATCC 29213 (MSSA) and ATCC 43330 (MRSA), both beta-lactamase positive strains, which represent greater than 90% of the respective strains in the American population.
Petri dish preparation: A sterile cotton swab (American Scientific Products, McGraw Park, Ill.) was dipped into the cultures and used to swab the entire surface of 150×15 mm Petri dishes containing 75 ml of standard Mueller-Hinton agar. Two Petri dishes were inoculated with ATCC 29213 (MSSA and two Petri dishes with ATCC 43330 (MRSA). One Petri dish of each group (MSSA and MRSA) was set aside as the controls. The other two Petri dishes (MSSA and MRSA) were divided up in quadrants, and each quadrant was labeled B, C, D or E.
Cleanser compositions were prepared as follows: A surfactant solution containing about 10% by volume of sodium dodecylbenzenesulfonate was prepared. An aqueous stock solution containing 0.5% by volume sodium hypochlorite and 0.5% by volume abrasive (calcium carbonate and sodium carbonate) was prepared. The surfactant solution and stock solution were mixed in various ratios to produce four skin cleanser solutions having four different surfactant concentrations of 0.5%, 1%, 2% and 8%, by volume. The amount of sodium hypochlorite, calcium carbonate and sodium carbonate in each of the four skin cleanser solutions was less than 1% concentration by volume.
Cleanser Testing: Four samples of the cleanser with the four different concentrations of the surfactant (0.5%, 1%, 2% and 8%) were placed into four separate, unmarked bottles. Each bottle was randomly labeled (B, C, D, or E), and the microbiologist conducting the study was unaware of any difference between the solutions.
Application: Holding each bottle vertically, the microbiologist added a single drop from each bottle (B, C, D, or E) to the corresponding quadrant of the labeled Petri dish. All four Petri dishes were placed in an incubator overnight at 37 degrees Celsius, and examined 20 hours later. Petri dishes were compared to the corresponding controls, and zones of inhibition were characterized by the largest point of diameter of the circle or oval.
Four cleanser compositions were prepared and tested in the manner described in Example 1, except that each cleanser contained a different anionic surfactant. […]

Enterococcus = assay: Infected decubitus ulcer, patient case; type: in vivo, human; details: on antibiotics, five days after admission
Description: Action against Gram-positives such as Enterococcus: A person with long history of diabetes was admitted from their hospice care home to an acute care facility hospital secondary to an infected decubitus ulcer (bedsore). This patient's sacral ulcer tested positive from culture swab for Enterococcus, a common Gram-positive bacterium for infecting bedsores. Immediately upon admission, the patient was placed on antibiotics (ciprofloxacin). […] On day five, the treating physician directly cultured the wound again with two cotton swabs. Cotton swab #1, the control, was placed directly in the sealed container based on hospital protocol. Cotton swab #2 was placed into the sealed container, but one single vertical drop of a cleanser solution (prepared as described in Example 1). Both swabs were sent to the lab and a count of colony-forming units (CFUs) ordered.

CC[C@H]1OC(=O)[C@H](C)[C@@H](O[C@H]2C[C@@](C)(OC)[C@@H](O)[C@H](C)O2)[C@H](C)[C@@H](O[C@@H]2O[C@H](C)C[C@H](N(C)C)[C@H]2O)[C@](C)(OC)C[C@@H](C)C(=O)[C@H](C)[C@@H](O)[C@]1(C)O [Clarythromycin]
symptoms of infection (mycobacteria marinum): no change in symptoms

CCCCCCCCCCCC(=O)N(C)CC(=O)[O-].[Na+] [N-lauroylsarcosine sodium salt]
order of anti-bacterial effectiveness [1]: sodium dodecylbenzenesulfonate >N-lauroylsarcosine sodium salt >sodium cholate, sodium deoxycholate

OCl [Sodium hypochlorite]
effect on anti-bacterial action of sodium dodecylbenzenesulfonate ([1]; synergy of action): potentiated

O=C(O)c1cn(C2CC2)c2cc(N3CCNCC3)c(F)cc2c1=O [ciprofloxacin]
course of ulcer (Enterococcus): signs of worsening

C[C@H](CCC(=O)[O-])[C@H]1CC[C@H]2[C@@H]3[C@H](O)C[C@@H]4C[C@H](O)CC[C@]4(C)[C@H]3C[C@H](O)[C@]12C.[Na+] [sodium cholate]
order of anti-bacterial effectiveness [1]: sodium dodecylbenzenesulfonate >N-lauroylsarcosine sodium salt >sodium cholate, sodium deoxycholate

sodium deoxycholate
order of anti-bacterial effectiveness [1]: sodium dodecylbenzenesulfonate >N-lauroylsarcosine sodium salt >sodium cholate, sodium deoxycholate
